# Data: ChEMBL document CHEMBL1148522 (J Med Chem, 2006)
# Biological target: Proto-oncogene tyrosine-protein kinase Src (Homo sapiens, UniProt P12931)
# Assay: Inhibition of SRC using polyE4Y as substrate
# Chain of Proto-oncogene tyrosine-protein kinase Src (P12931 2-536 limits assumed): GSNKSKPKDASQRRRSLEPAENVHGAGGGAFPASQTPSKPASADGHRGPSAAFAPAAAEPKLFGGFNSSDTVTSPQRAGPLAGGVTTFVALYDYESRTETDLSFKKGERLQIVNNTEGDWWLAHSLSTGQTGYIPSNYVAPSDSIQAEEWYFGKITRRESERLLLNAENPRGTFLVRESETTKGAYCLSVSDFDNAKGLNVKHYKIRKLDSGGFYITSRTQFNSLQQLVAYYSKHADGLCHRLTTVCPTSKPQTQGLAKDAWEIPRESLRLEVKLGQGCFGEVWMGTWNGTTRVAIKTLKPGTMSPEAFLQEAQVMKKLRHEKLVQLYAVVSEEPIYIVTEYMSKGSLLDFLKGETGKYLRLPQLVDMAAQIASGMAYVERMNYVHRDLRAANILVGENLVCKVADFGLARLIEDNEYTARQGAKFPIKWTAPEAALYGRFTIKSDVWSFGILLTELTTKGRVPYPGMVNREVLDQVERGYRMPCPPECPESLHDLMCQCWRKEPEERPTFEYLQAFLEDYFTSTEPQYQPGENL
row,IC50,SMILES
1,> 700 µM,CC[C@H](C)[C@H](NC(=O)[C@H](CS)NC(C)=O)C(=O)N[C@@H](Cc1ccc(O)cc1)C(=O)N[C@@H](CCCCN)C(=O)N[C@@H](Cc1ccc(O)cc1)C(=O)N[C@@H](Cc1ccc(N)cc1)C(=O)O
2,> 700 µM,CC[C@H](C)[C@H](NC(=O)[C@H](CS)NC(C)=O)C(=O)N[C@@H](Cc1ccc(O)cc1)C(=O)N[C@@H](CCCCN)C(=O)N[C@@H](Cc1ccc(NS(C)(=O)=O)cc1)C(=O)N[C@@H](Cc1ccc(O)cc1)C(=O)O
